Reference: patent publication US20240199455A1, “REMOVAL OF TOXIC OXYANIONS BY CO-CRYSTALLIZATION WITH SULFATE” (UT-Battelle, LLC, priority 2022, published 2024)

Assays:
[1] = Cocrystallization from simulated Bull Run groundwater
Experimental: (§1) In a typical experiment, BIG chloride was added to wastewater containing sulfate, selenate, and/or selenite anions, and immediately upon addition, a white precipitate formed. The resulting suspensions were mixed for 24 h using a rotator set at 60 rpm inside an incubator set to 25 C. The samples were then removed and centrifuged for 10 min at 3000 rpm to separate the aqueous and solid phases. In the field, the suspended solids were filtered through a filter press. A 1 mL aliquot was then removed from each sample and passed through a 0.02 μm syringe filter to ensure any suspended solid was removed from the filtrate prior to diluting the samples in 2% HNO3 for ICP-MS analysis. To recover the BIG ligand, 2.1 equiv. of NaOH (or adjusted to a pH of 11) was added to a suspension of the BIG-oxyanion salts in a 15 mL polypropylene centrifuge tube. The suspension was mixed for 24 h at 60 rpm. The suspended BIG neutral solid was filtered from the supernatant solutions containing the oxyanions dissolved as soluble sodium salts. The BIG chloride salts were then regenerated by the addition of 0.1 M HCl to the neutral ligands. This process is depicted schematically in FIG. 5.
The efficacies of sulfate and selenate removal with BBIG and PyBIG ligands were next tested with simulated wastewater to determine if the EPA's 5 ppb discharge limit was achievable. The initial concentrations of sulfate and selenate in the simulated wastewater were based on typical values found in groundwaters monitored at the Bull Run steam plant of Tennessee Valley Authority (TVA). The simulated Bull Run groundwater contained an 8985-fold excess concentration of sulfate relative to selenate, with sulfate and selenate concentrations of 5.84±0.11 mM and 0.65±0.07 μM, respectively. Cocrystallization studies were performed with 1 and 2 mol equiv of BBIG or PyBIG. […] On the other hand, selenate removal was near quantitative with 2 equiv of BBIG (FIG. 4a).

[2] = Cocrystallization from equimolar sulfate/selenate mixture (2.5 mM each); conditions: for selenate removal / sulfate removal: 2.5 mM sulfate + 2.5 mM selenate; for ratio of sulfate to selenate % removal: equimolar mixture
Experimental: as §1
Concomitant crystallization of sulfate and selenate with either BBIG or PyBIG led to near quantitative removal of both oxyanions from equimolar aqueous mixtures. Cocrystallization experiments were carried out keeping the concentration of sulfate and selenate at near equimolar concentrations of 2.5 mM, while the BIG concentrations were increased gradually from 5 to 50 mM. […] At higher BBIG concentrations, the oxyanion removal remained near quantitative. Referring to the ratio of sulfate to selenate % removal, a ratio of 1.0 indicates there is no preference for sulfate over selenate. […] At relative ligand concentrations higher than 1 equivalent of BBIG, the ratio of removal efficiencies approaches 1, indicating no preference between the two oxyanions by crystallization under these conditions.
PyDIG also quantitatively removed sulfate and selenate at higher BIG concentrations. […] Increasing the PyBIG concentration achieved a ratio of approximately 1, indicating no discrimination between sulfate and selenate with excess PyBIG. With both BBIG and PyBIG, it appears the 2:1 BIG:oxyanions ratio is ideal for effectively removing SO4^2− and SeO4^2− anions from solution with minimal excess of the BIG ligands.

[3] = Crystallization at constant 2.5 mM sulfate and decreasing selenate (2.5 mM to 2.5 μM); conditions: 2.5 mM sulfate
Experimental: as §1
Crystallization experiments were carried out keeping sulfate at a constant concentration and decreasing the selenate concentration while maintaining constant ionic strength to mimic wastewater conditions. These experiments were carried out at 1 and 2 molar equivalents of BBIG or PyBIG. […] At lower selenate concentrations of 250, 25, and 2.5 μM, there is no discernible preference between the oxyanions. […] At the lowest concentration of selenate, the amount remaining in solution after crystallization is below the limit of detection of 0.02 ppb Se. The same trend is observed for PyBIG, with near quantitative removal of both sulfate and selenate.

[4] = Cocrystallization from simulated Bull Run leachate
Experimental: as §1
A more concentrated simulated wastewater solution based on Bull Run's leachate water that has leached from fly ash beds was also tested with BBIG and PyBIG. The concentrations of sulfate and selenate in the simulated leachate were 48.49±0.7 mM and 2.37±0.16 μM, respectively, with sulfate concentration being 20,460 times higher than that of selenate. In the case of BBIG, 1 equiv removed 96.3% and 95.4% sulfate and selenate, respectively, while 2 equiv removed sulfate and selenate near quantitatively at 99.90% and 99.94%, respectively, with a final Se concentration of 8.59±0.62 ppb (1 equiv) and 0.20±0.01 ppb (2 equiv). In the case of PyBIG, 89.2% and 85.5% sulfate and selenate, respectively, were removed with 1 equiv, and 99.98% and 99.99%, respectively with 2 equiv. The final Se concentrations after cocrystallization with PyBIG were 27.23±0.92 ppb (1 equiv) and 0.02±0.01 ppb (2 equiv), reaching the limit of detection. […] In fact, the large excess of sulfate present in the wastewaters appears to help remove trace amounts of selenate by cocrystallization with BBIG or PyBIG, down to sub-ppb levels of Se.

[5] = Crystallization of individual oxyanion (5 mM) with BIG chloride, ICP-MS of filtrate; conditions: for selenate removal efficiency: 5 mM selenate alone; for sulfate removal efficiency: 5 mM sulfate alone
Experimental: as §1
Crystallization studies with BBIG and individual sulfate, selenate, or selenite anions (5 mM) were performed, while the concentration of BIGs was increased from one to ten molar equivalents. […] On the other hand, only approximately half (53.0%, FIG. 2a) of the selenite was removed from the solution with 1 equivalent of BBIG, which can be attributed to its propensity to form HScO3^−, by deprotonating BBIG in the process. […] Once again, selenite was removed to a lesser extent (70.7%) with 1 equivalent of PyBIG (FIG. 2b).

[6] = simulated groundwater (5.84 mM sulfate, 0.65 μM selenate), 1 equiv BIG
[7] = simulated groundwater, 2 equiv BIG
[8] = 1 molar equivalent BIG relative to total oxyanion
[9] = BIG increased to 2 equivalents (PyBIG: increased concentration, plateau after 2 equivalents)
[10] = simulated leachate (48.49 mM sulfate, 2.37 μM selenate), 1 equiv BIG
[11] = simulated leachate, 2 equiv BIG
[12] = BIG at twice the oxyanion concentration (10 mM)

## N=C(N)N/N=C/c1cccc(/C=N/NC(=N)N)n1 [PyBIG, pyridinedialdehydebis(iminoguanidinium)]
[1]; [6]
  selenate removal: 81.6%
  sulfate removal: 88.5%
[1]; simulated groundwater, 1 equiv BIG
  final Se concentration: 9.39±0.34 ppb
[1]; [7]
  final Se concentration: 0.02±0.01 ppb
  selenate removal: 99.96%
  sulfate removal: 99.94%
[2]; [8]
  selenate removal: 75.6%
  sulfate removal: 82.3%
[2]; [9]
  selenate removal: 99.7%
  sulfate removal: 97.8%
[2]; 1 equivalent BIG, 1.0 = no preference
  ratio of sulfate to selenate % removal: 0.84
[2]; more than 1 equivalent (excess) BIG
  ratio of sulfate to selenate % removal: approximately 1
[3]; 1 equiv BIG
  selenate removal: 75.6%
  sulfate removal: 82.3%
[3]; 2 equiv BIG
  selenate removal: > 99.7%
  sulfate removal: > 99.7%
[4]; simulated groundwater and leachate
  sulfate-to-selenate removal ratio: approximately one
[4]; [10]
  selenate removal: 85.5%
  sulfate removal: 89.2%
[4]; simulated leachate, 1 equiv BIG
  final Se concentration: 27.23±0.92 ppb
[4]; [11]
  final Se concentration: 0.02±0.01 ppb
  selenate removal: 99.99%
  sulfate removal: 99.98%
[5]; 5 mM (1 equiv) BIG
  selenate removal efficiency: 93.9%
[5]; [12]
  selenate removal efficiency: 99.8%
  sulfate removal efficiency: 99.9%
[5]; 5 mM selenite alone, 1 equivalent BIG
  selenite removal efficiency: 70.7%
[5]; 5 mM (1 equiv) BIG, 24 h, 25 C
  sulfate removal efficiency: 95.0%
